Species on record: Rattus norvegicus
Experiment: DrugMatrix - Regimen: Daily Repeat
Type: toxicity, organism-based, Sprague-Dawley
Set-up: regimen Daily Repeat, gender Male, age 6-8 weeks
Details: in vivo, po, route oral GAVAGE, vehicle 100 % SALINE; for ABSOLUTE BASOPHIL / ABSOLUTE EOSINOPHIL / ABSOLUTE LYMPHOCYTE / ABSOLUTE MONOCYTE / ABSOLUTE SEGMENTED NEUTROPHIL / BASOPHIL / EOSINOPHIL / ERYTHROCYTE COUNT / HEMATOCRIT / HEMOGLOBIN / LEUKOCYTE COUNT / LYMPHOCYTE / MEAN CORPUSCULAR HEMOGLOBIN / MEAN CORPUSCULAR HEMOGLOBIN CONCENTRATION / MEAN CORPUSCULAR VOLUME / MONOCYTE / NEUTROPHIL / NUCLEATED RED BLOOD CELLS / PLATELET COUNT: tissue Blood; for ALANINE AMINOTRANSFERASE / ALBUMIN / ALKALINE PHOSPHATASE / ASPARTATE AMINOTRANSFERASE / BLOOD UREA NITROGEN / CARBON DIOXIDE / CHLORIDE / CHOLESTEROL / CREATINE PHOSPHOKINASE / CREATININE / GLUCOSE / LACTATE DEHYDROGENASE / LIPASE / PHOSPHORUS / POTASSIUM / SODIUM / TOTAL BILIRUBIN / TOTAL PROTEIN / URIC ACID: tissue Plasma
[1] = 0 mg/kg, 72 h, dose level Control, time 3 day
[2] = 0 mg/kg, 120 h, dose level Control, time 5 day
[3] = 1200 mg/kg, 72 h, dose level High, time 3 day
[4] = 1200 mg/kg, 120 h, dose level High, time 5 day

CC(=O)OCC(CCn1cnc2cnc(N)nc21)COC(C)=O [FAMCICLOVIR]
ABSOLUTE BASOPHIL [1]: 0 CELLS/uL | ABSOLUTE EOSINOPHIL [1]: 37 CELLS/uL | ABSOLUTE LYMPHOCYTE [1]: 12359.33 CELLS/uL | ABSOLUTE MONOCYTE [1]: 122.67 CELLS/uL | ABSOLUTE SEGMENTED NEUTROPHIL [1]: 847.67 CELLS/uL | BASOPHIL [1]: 0% | EOSINOPHIL [1]: 0.33% | ERYTHROCYTE COUNT [1]: 5.75 x10E6/uL | HEMATOCRIT [1]: 36.08% | HEMOGLOBIN [1]: 14.07 G/DL | LEUKOCYTE COUNT [1]: 13.37 x10E3/uL | LYMPHOCYTE [1]: 92.5% | MEAN CORPUSCULAR HEMOGLOBIN [1]: 24.47 pg | MEAN CORPUSCULAR HEMOGLOBIN CONCENTRATION [1]: 38.98 G/DL | MEAN CORPUSCULAR VOLUME [1]: 62.78 fL | MONOCYTE [1]: 1% | NEUTROPHIL [1]: 6.17% | NUCLEATED RED BLOOD CELLS [1]: 0.17 /100WBC | PLATELET COUNT [1]: 1202.17 x10E3/uL | ALANINE AMINOTRANSFERASE [1]: 50.67 u/L | ALBUMIN [1]: 4.13 G/DL | ALKALINE PHOSPHATASE [1]: 356.33 u/L | ASPARTATE AMINOTRANSFERASE [1]: 78.17 u/L | BLOOD UREA NITROGEN [1]: 14.17 mg/dL | CARBON DIOXIDE [1]: 31.33 mmol/L | CHLORIDE [1]: 98.5 MEQ/L | CHOLESTEROL [1]: 76.5 mg/dL | CREATINE PHOSPHOKINASE [1]: 248.33 u/L | CREATININE [1]: 0.2 mg/dL | GLUCOSE [1]: 144 mg/dL | LACTATE DEHYDROGENASE [1]: 107 u/L | LIPASE [1]: 9.83 u/L | PHOSPHORUS [1]: 12.8 mg/dL | POTASSIUM [1]: 6.75 MEQ/L | SODIUM [1]: 142 MEQ/L | TOTAL BILIRUBIN [1]: 0.18 mg/dL | TOTAL PROTEIN [1]: 5.98 G/DL | URIC ACID [1]: 1.42 mg/dL | ABSOLUTE BASOPHIL [2]: 0 CELLS/uL | ABSOLUTE EOSINOPHIL [2]: 0 CELLS/uL | ABSOLUTE LYMPHOCYTE [2]: 8681.17 CELLS/uL | ABSOLUTE MONOCYTE [2]: 79.83 CELLS/uL | ABSOLUTE SEGMENTED NEUTROPHIL [2]: 689 CELLS/uL | BASOPHIL [2]: 0% | EOSINOPHIL [2]: 0% | ERYTHROCYTE COUNT [2]: 5.49 x10E6/uL | HEMATOCRIT [2]: 33.55% | HEMOGLOBIN [2]: 13.1 G/DL | LEUKOCYTE COUNT [2]: 9.45 x10E3/uL | LYMPHOCYTE [2]: 92.33% | MEAN CORPUSCULAR HEMOGLOBIN [2]: 23.92 pg | MEAN CORPUSCULAR HEMOGLOBIN CONCENTRATION [2]: 39.07 G/DL | MEAN CORPUSCULAR VOLUME [2]: 61.22 fL | MONOCYTE [2]: 0.67% | NEUTROPHIL [2]: 7% | NUCLEATED RED BLOOD CELLS [2]: 0.17 /100WBC | PLATELET COUNT [2]: 1001.17 x10E3/uL | ALANINE AMINOTRANSFERASE [2]: 49.33 u/L | ALBUMIN [2]: 4.07 G/DL | ALKALINE PHOSPHATASE [2]: 300.33 u/L | ASPARTATE AMINOTRANSFERASE [2]: 83.5 u/L | BLOOD UREA NITROGEN [2]: 16 mg/dL | CARBON DIOXIDE [2]: 29.67 mmol/L | CHLORIDE [2]: 100.5 MEQ/L | CHOLESTEROL [2]: 74.33 mg/dL | CREATINE PHOSPHOKINASE [2]: 489.67 u/L | CREATININE [2]: 0.35 mg/dL | GLUCOSE [2]: 151 mg/dL | LACTATE DEHYDROGENASE [2]: 133.67 u/L | LIPASE [2]: 11.17 u/L | PHOSPHORUS [2]: 10.88 mg/dL | POTASSIUM [2]: 5.5 MEQ/L | SODIUM [2]: 145.7 MEQ/L | TOTAL BILIRUBIN [2]: 0.2 mg/dL | TOTAL PROTEIN [2]: 6.05 G/DL | URIC ACID [2]: 0.68 mg/dL | ABSOLUTE BASOPHIL [3]: 0 CELLS/uL | ABSOLUTE EOSINOPHIL [3]: 0 CELLS/uL | ABSOLUTE LYMPHOCYTE [3]: 7020.67 CELLS/uL | ABSOLUTE MONOCYTE [3]: 111 CELLS/uL | ABSOLUTE SEGMENTED NEUTROPHIL [3]: 835 CELLS/uL | BASOPHIL [3]: 0% | EOSINOPHIL [3]: 0% | ERYTHROCYTE COUNT [3]: 5.23 x10E6/uL | HEMATOCRIT [3]: 33.07% | HEMOGLOBIN [3]: 13.03 G/DL | LEUKOCYTE COUNT [3]: 7.97 x10E3/uL | LYMPHOCYTE [3]: 88% | MEAN CORPUSCULAR HEMOGLOBIN [3]: 24.97 pg | MEAN CORPUSCULAR HEMOGLOBIN CONCENTRATION [3]: 39.4 G/DL | MEAN CORPUSCULAR VOLUME [3]: 63.33 fL | MONOCYTE [3]: 1.33% | NEUTROPHIL [3]: 10.67% | NUCLEATED RED BLOOD CELLS [3]: 0 /100WBC | PLATELET COUNT [3]: 1079.67 x10E3/uL | ALANINE AMINOTRANSFERASE [3]: 49 u/L | ALBUMIN [3]: 4.07 G/DL | ALKALINE PHOSPHATASE [3]: 334 u/L | ASPARTATE AMINOTRANSFERASE [3]: 80.33 u/L | BLOOD UREA NITROGEN [3]: 14.33 mg/dL | CARBON DIOXIDE [3]: 29.33 mmol/L | CHLORIDE [3]: 100.67 MEQ/L | CHOLESTEROL [3]: 77.33 mg/dL | CREATINE PHOSPHOKINASE [3]: 294 u/L | CREATININE [3]: 0.2 mg/dL | GLUCOSE [3]: 160 mg/dL | LACTATE DEHYDROGENASE [3]: 118.67 u/L | LIPASE [3]: 10 u/L | PHOSPHORUS [3]: 11.4 mg/dL | POTASSIUM [3]: 5.59 MEQ/L | SODIUM [3]: 144.23 MEQ/L | TOTAL BILIRUBIN [3]: 0.17 mg/dL | TOTAL PROTEIN [3]: 5.83 G/DL | URIC ACID [3]: 0.93 mg/dL | ABSOLUTE BASOPHIL [4]: 0 CELLS/uL | ABSOLUTE EOSINOPHIL [4]: 0 CELLS/uL | ABSOLUTE LYMPHOCYTE [4]: 9833.67 CELLS/uL | ABSOLUTE MONOCYTE [4]: 110.67 CELLS/uL | ABSOLUTE SEGMENTED NEUTROPHIL [4]: 822.33 CELLS/uL | BASOPHIL [4]: 0% | EOSINOPHIL [4]: 0% | ERYTHROCYTE COUNT [4]: 5.64 x10E6/uL | HEMATOCRIT [4]: 35.27% | HEMOGLOBIN [4]: 13.9 G/DL | LEUKOCYTE COUNT [4]: 10.77 x10E3/uL | LYMPHOCYTE [4]: 91.33% | MEAN CORPUSCULAR HEMOGLOBIN [4]: 24.73 pg | MEAN CORPUSCULAR HEMOGLOBIN CONCENTRATION [4]: 39.43 G/DL | MEAN CORPUSCULAR VOLUME [4]: 62.77 fL | MONOCYTE [4]: 1% | NEUTROPHIL [4]: 7.67% | NUCLEATED RED BLOOD CELLS [4]: 0.33 /100WBC | PLATELET COUNT [4]: 1147.67 x10E3/uL | ALANINE AMINOTRANSFERASE [4]: 54 u/L | ALBUMIN [4]: 4.03 G/DL | ALKALINE PHOSPHATASE [4]: 380.67 u/L | ASPARTATE AMINOTRANSFERASE [4]: 82.33 u/L | BLOOD UREA NITROGEN [4]: 13 mg/dL | CARBON DIOXIDE [4]: 29.67 mmol/L | CHLORIDE [4]: 100.67 MEQ/L | CHOLESTEROL [4]: 75.67 mg/dL | CREATINE PHOSPHOKINASE [4]: 286 u/L | CREATININE [4]: 0.31 mg/dL | GLUCOSE [4]: 147.33 mg/dL | LACTATE DEHYDROGENASE [4]: 106 u/L | LIPASE [4]: 9.33 u/L | PHOSPHORUS [4]: 11.2 mg/dL | POTASSIUM [4]: 5.79 MEQ/L | SODIUM [4]: 145.73 MEQ/L | TOTAL BILIRUBIN [4]: 0.17 mg/dL | TOTAL PROTEIN [4]: 5.77 G/DL | URIC ACID [4]: 0.73 mg/dL
